The supplement of paper PMC10307832

Columns and labels:
Assay in all cases: relative viability (nuclei count vs DMSO), 5 days (fraction); higher = more cells survive
KIN001-266 + Alpelisib = compound: CCN1CCC(CC1)N2C=C(N=N2)CNC3=CC4=C(C(=CN=C4C(=C3)Cl)C#N)NC5=CC(=C(C=C5)F)Cl [KIN001-266] + Cc1nc(NC(=O)N2CCC[C@H]2C(N)=O)sc1-c1ccnc(C(C)(C)C(F)(F)F)c1 [Alpelisib] (partner 2 µM)
In short: (§1)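 Relative viability is defined as nuclei in treated wells over nuclei in vehicle wells. Duplicate plates were run and medians reported. Lung cancer cell lines in 1536-well plates were dosed by pin tool one day after seeding, with one drug or with a fixed anchor-drug dose plus five library-drug doses (not always all listed) in √10 steps, and nuclei were counted after 5 days.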

KIN001-266 + Linsitinib = compound: CCN1CCC(CC1)N2C=C(N=N2)CNC3=CC4=C(C(=CN=C4C(=C3)Cl)C#N)NC5=CC(=C(C=C5)F)Cl [KIN001-266] + C[C@]1(O)C[C@@H](c2nc(-c3ccc4ccc(-c5ccccc5)nc4c3)c3c(N)nccn32)C1 [Linsitinib] (partner 1 µM)
In short: as §1

KIN001-266 + Navitoclax = compound: CCN1CCC(CC1)N2C=C(N=N2)CNC3=CC4=C(C(=CN=C4C(=C3)Cl)C#N)NC5=CC(=C(C=C5)F)Cl [KIN001-266] + CC1(C)CCC(c2ccc(Cl)cc2)=C(CN2CCN(c3ccc(C(=O)NS(=O)(=O)c4ccc(N[C@H](CCN5CCOCC5)CSc5ccccc5)c(S(=O)(=O)C(F)(F)F)c4)cc3)CC2)C1 [Navitoclax] (partner 0.5 µM)
In short: as §1

KIN001-266 + Vorinostat = compound: CCN1CCC(CC1)N2C=C(N=N2)CNC3=CC4=C(C(=CN=C4C(=C3)Cl)C#N)NC5=CC(=C(C=C5)F)Cl [KIN001-266] + O=C(CCCCCCC(=O)Nc1ccccc1)NO [Vorinostat] (partner 1 µM)
In short: as §1

Row | Cell Line | relative viability (KIN001-266 + Alpelisib; first compound 0.08 µM) | relative viability (KIN001-266 + Alpelisib; first compound 0.253 µM) | relative viability (KIN001-266 + Alpelisib; first compound 0.8 µM) | relative viability (KIN001-266 + Alpelisib; first compound 2.53 µM) | relative viability (KIN001-266 + Alpelisib; first compound 8 µM) | relative viability (KIN001-266 + Linsitinib; first compound 0.08 µM) | relative viability (KIN001-266 + Linsitinib; first compound 0.253 µM) | relative viability (KIN001-266 + Linsitinib; first compound 0.8 µM) | relative viability (KIN001-266 + Linsitinib; first compound 2.53 µM) | relative viability (KIN001-266 + Linsitinib; first compound 8 µM) | relative viability (KIN001-266 + Navitoclax; first compound 0.08 µM) | relative viability (KIN001-266 + Navitoclax; first compound 0.253 µM) | relative viability (KIN001-266 + Navitoclax; first compound 0.8 µM) | relative viability (KIN001-266 + Navitoclax; first compound 2.53 µM) | relative viability (KIN001-266 + Navitoclax; first compound 8 µM) | relative viability (KIN001-266 + Vorinostat; first compound 0.08 µM) | relative viability (KIN001-266 + Vorinostat; first compound 0.253 µM) | relative viability (KIN001-266 + Vorinostat; first compound 0.8 µM) | relative viability (KIN001-266 + Vorinostat; first compound 2.53 µM) | relative viability (KIN001-266 + Vorinostat; first compound 8 µM)
1 | LXF-289 | 1.05 | 1.03 | 1.01 | 1.05 | 1.03 | 0.931 | 0.945 | 0.878 | 0.968 | 0.935 | 0.957 | 0.952 | 0.929 | 0.952 | 0.925 | 0.752 | 0.79 | 0.734 | 0.814 | 0.884
2 | CAL-12T | 1.43 | 1.39 | 1.11 | 1.3 | 1.02 | 0.802 | 0.811 | 0.774 | 0.863 | 0.493 | 1.47 | 1.31 | 1.17 | 1.33 | 1.15 | 0.728 | 0.662 | 0.903 | 0.73 | 0.895
3 | COR-L23 | 0.735 | 0.804 | 0.814 | 0.736 | 0.404 | 0.958 | 0.918 | 0.928 | 0.88 | 0.601 | 0.99 | 1.03 | 1.01 | 1.01 | 0.54 | 0.397 | 0.46 | 0.62 | 0.422 | 0.237
4 | NCI-H1755 | 1 | 0.895 | 0.95 | 0.843 | 0.816 | 1 | 0.973 | 0.965 | 0.955 | 0.844 | 1.01 | 0.985 | 0.981 | 0.992 | 0.799 | 0.726 | 0.75 | 0.7 | 0.691 | 0.763
5 | NCI-H1437 | 0.997 | 1.06 | 0.961 | 0.858 | 0.495 | 1.07 | 1 | 1.03 | 1.03 | 0.583 | 1.09 | 1.11 | 1.08 | 1.12 | 0.911 | 0.931 | 0.841 | 0.797 | 0.841 | 0.572
6 | NCI-H2085 | 0.941 | 0.983 | 0.959 | 1 | 0.795 | 0.854 | 0.986 | 0.908 | 0.949 | 0.793 | 1.15 | 1.25 | 1.08 | 1.13 | 0.906 | 0.785 | 0.779 | 0.808 | 0.772 | 0.667
7 | IA-LM | 1.09 | 0.652 | 0.754 | 0.635 | 0.755 | 0.51 | 0.435 | 0.58 | 0.584 | 0.641 | 0.948 | 0.619 | 0.731 | 0.935 | 0.561 | 0.932 | 0.966 | 0.971 | – | 1.01
8 | H3255 | 0.685 | 0.737 | 0.756 | 0.785 | 0.475 | 0.841 | 1.03 | 0.884 | 0.841 | 0.713 | 0.689 | 0.566 | 0.494 | 0.482 | 0.615 | 0.882 | 0.839 | 0.792 | 0.721 | 0.836
9 | LOU-NH91 | 0.735 | 0.724 | 0.501 | 0.676 | 0.588 | 0.968 | 0.952 | 0.652 | 0.896 | 0.73 | 0.761 | 0.646 | 0.47 | 0.609 | 0.55 | 0.96 | 0.924 | 0.71 | 0.746 | 0.797
10 | NCI-H3122 | 0.841 | 0.909 | 0.699 | 0.728 | 0.767 | 0.979 | 0.97 | 0.996 | 0.958 | 0.96 | 0.968 | 1.09 | 1.01 | 0.998 | 0.769 | 0.966 | 1.13 | 0.992 | 1.06 | 1.02
11 | PC-3 [JPC-3] | 1.04 | 1.02 | 0.957 | 0.983 | 0.896 | 0.99 | 0.934 | 0.941 | 0.958 | 0.896 | 0.813 | 0.869 | 0.759 | 0.738 | 0.803 | 0.856 | 0.887 | 0.801 | 0.987 | 0.847
12 | NCI-H1651 | 1.05 | 0.949 | 1.01 | 0.99 | 0.865 | 1.08 | 1.02 | 0.948 | 0.998 | 0.861 | 0.954 | 1.04 | 1.1 | 0.949 | 1.05 | 0.568 | 0.564 | 0.533 | 0.681 | 0.577
13 | NCI-H2087 | 1.06 | 1.02 | 1.04 | 1.06 | 0.758 | 0.924 | 0.95 | 0.963 | 0.791 | 0.599 | 1.17 | 0.93 | 0.916 | 0.97 | 0.56 | 0.455 | 0.776 | 0.965 | 0.898 | 0.594
